Data as given in patent US9370494B2, “Methods for treating hepatocellular carcinoma” (ABRAXIS BIOSCIENCE, LLC, priority 2010, dated 2016).

Assays:
HCC cells = details: US Patent App. No. 2008/0045584; cited from earlier work
SK-HEP1/Luc+ xenograft = SK-HEP1/Luc+ xenograft model; details: 35 mmol/kg every two days for five times
Protocol: SK-HEP1 luciferase stable clone was prepared by transfecting SK-HEP1 cells with firefly luciferase expression vector and selected with 500 ug/ml Geneticin (Gibco-BRL) for 4 weeks. Individual colonies were screened for bioluminescence activity using the Xenogen IVIS® imager (Alameda, Calif., USA). Clones with stable luminescence expression were used for in-vivo studies.
Male BALB/c nude mice at 6-8 weeks old with an average body weight of about 20 g were anesthetized by intraperitoneal injection of ketamine hydrochloride (120 mg/kg) (Fort Dodge Animal Health, Fort Dodge, Iowa, USA) plus xylazine (6 mg/kg) (Phoenix Scientific, Inc., St. Joseph, Mo., USA). Anesthetized animals then received 5×10^6 SK-HEP1/Luc+ cells suspended in 200 μl serum free medium by subcutaneous injection below the dorsal flank. Drug treatments started on day 14 after tumor cells inoculation. […] All drugs were given every two days for five times, at a dose of 35 mmol/kg. See Desai N. et al., Clinical Cancer Research, 12:1317-24 (2006). Tumor growth was monitored twice weekly by in-vivo bioluminescent imaging and by external caliper measurements using the formula of [(Length×Width^2)/2] for 24 days. For in-vivo bioluminescent imaging, 150 mg/kg D-luciferin were given by intraperitoneal injection and ten minutes after luciferin injection, mice were anesthetized by isoflurane and tumor cell viability was measured by the Xenogen IVIS® imager.

[1] = test system: Hep3B, SK-HEP1 and HKCl-9 HCC cell lines; test: MTT cell viability assay in HCC cell lines; type: cell-based; details: Homo sapiens; 48 h; range over the 3 cell lines Hep3B, SK-HEP1, HKCl-9
Protocol: Human liver cancer cell lines Hep3B and SK-HEP1 acquired from ATCC were cultured in Dulbecco's modified Eagle medium with Glutamax-1 (Gibco-BRL, Grand Island, N.Y., USA) supplemented with 10% fetal bovine serum. HKCl-9 (as described in Chan K.Y. Y. et al., Modern Pathology 19:1546-54 (2006)) was cultured in AIMV medium (Gibco-BRL) supplemented with 1% L-Glutamine and 10% fetal bovine serum. All cells were cultured under a humidified atmosphere of 5% CO2 at 37° C.

Hep3B cells = test: MTT cell viability assay after siRNA transfection (STMN1 knockdown); type: cell-based, human
Protocol: Cell viability was measured by MTT Assay. Cells grown in 96-well plates at density of 3000 cells per well were treated with drugs or siRNA transfection as indicated. […] The formazan formed was measured at 570 nm and cell viability is expressed as a percentage of maximum absorbance from 5 replicates in 3 independent experiments. The concentration of drug that inhibited cell survival by 50% (IC50) was determined from cell survival curves.
siRNA sequences included STMN1 siGENOME SMARTpool (si-STMN1) and siCONTROL Non-Targeting siRNA (si-mock). All siRNAs were chemically synthesized as double stranded RNA (Dharmacon) and introduced into cell lines by Lipofectamine 2000 (Invitrogen, Carlsbad, Calif., USA) according to manufacturer's instructions. Briefly, cells were incubated with 100 nM siRNA (si-STMN1 or si-mock). Six hours after transfection, medium was replaced by fresh growing medium. The expression of STMN1 was monitored by Western blot, which indicated a repressed expression for at least 3 days.

HCC patients = details: British Journal of Cancer 1998; cited from earlier work
[2] = test system: hepatitis B-related HCC patients; details: advanced stage patients; placebo 4.2 months; cited from earlier work

In the case of CC(=O)O[C@@]12CO[C@@H]1C[C@H](O)[C@@]1(C)C(=O)[C@H](O)C3=C(C)[C@@H](OC(=O)[C@H](O)[C@@H](NC(=O)OC(C)(C)C)c4ccccc4)C[C@@](O)([C@@H](OC(=O)c4ccccc4)[C@H]21)C3(C)C [Docetaxel], the “Activity against HCC cells relative to paclitaxel” value (HCC cells) is given as “more active against HCC cells than paclitaxel” and the “Toxicity (weight loss, deaths)” value (SK-HEP1/Luc+ xenograft) is given as “particularly severe”.

In the case of COc1cccc2c1C(=O)c1c(O)c3c(c(O)c1C2=O)C[C@@](O)(C(=O)CO)C[C@@H]3O[C@H]1C[C@H](N)[C@H](O)[C@H](C)O1 [Doxorubicin], the IC50 [1] is reported as 106 to 456 nM, the “Toxicity (weight loss, deaths)” value (SK-HEP1/Luc+ xenograft) is reported as “particularly severe” and the “Fold more sensitive after STMN1 knockdown (si-STMN1 vs si-mock)” value (Hep3B cells) is reported as “no effect”.

For CC(=O)O[C@H]1C(=O)[C@@]2(C)[C@H]([C@H](OC(=O)c3ccccc3)[C@]3(O)C[C@H](OC(=O)[C@H](O)[C@@H](NC(=O)c4ccccc4)c4ccccc4)C(C)=C1C3(C)C)[C@]1(OC(C)=O)CO[C@@H]1C[C@@H]2O [Paclitaxel], the “Anti-cancer effect in HCC patients” value (HCC patients) is given as “no significant anti-cancer effect” and the “Toxicity (weight loss, deaths)” value (SK-HEP1/Luc+ xenograft) is given as “particularly severe”.

In the case of CNC(=O)c1cc(Oc2ccc(NC(=O)Nc3ccc(Cl)c(C(F)(F)F)c3)cc2)ccn1 [Sorafenib], the Median overall survival [2] is given as 6.5 months.
